Measured values from publication PMC4320154, “Treatment of Methicillin-resistant Staphylococcus aureus experimental Osteomyelitis with bone-targeted Vancomycin” (SpringerPlus, 2013).
Structures can show the parent of a compound that is named as a salt. Where two headings read alike, the source gives them in different places. Each block holds one compound with its values, some of them ahead of it.

How the values were obtained:
[1] = assay type: in vivo, male Wistar rats
Experimental: (§1) Four weeks after establishing infection, five rats were sacrificed, the left tibia aseptically removed and quantitative cultures performed. The remaining animals underwent surgical débridement of the infection site with sterile saline and were arbitrarily assigned to one of five study arms for a duration of 21 days: No treatment (n=17), vancomycin HCl every 12 hours (n=17, 42 doses), BT2-peg2-vancomycin diformate every 12 hours (n=17, 42 doses), BT2-peg2-vancomycin diformate every 12 hours for 3.5 days and then every fourth day thereafter (n=16, 11 doses), and BT2-peg2-vancomycin diformate once per week (n=15, 3 doses). Vancomycin HCl was administered at 50 mg/kg and BT2-peg2-vancomycin diformate at 63.85 mg/kg (equivalent to 50 mg/kg active vancomycin); both were administered intraperitoneally. Twelve hours after completion of therapy (day 50), blood was collected via cardiac puncture for hematology and chemistry studies [performed by Charles River (Wilmington, MA)], and drug concentration studies. Rats were sacrificed with CO2. The left (infected) tibia from one animal in each group was collected for histopathology with bones placed in 10% neutralized buffered formalin (NBF), decalcified, embedded in […], prepared as longitudinal cuts and stained with hematoxylin and eosin. The left (infected) tibias from the remaining animals were weighed, cryopulverized and processed for quantitative and qualitative bacterial culture. Culture results were expressed as log10 cfu/g of bone tissue.
Kidneys from all animals were weighed, observed for abnormalities in size or color, and placed in NBF. Histological analysis was performed by Seventh Wave (Chesterfield, MO). Microscopic lesions were graded on a scale of one to four, with four being the most severe. Tubulointerstitial nephritis was characterized by multifocal non-suppurative interstitial inflammation, interstitial fibrosis, tubular epithelial degeneration, necrosis, and regeneration with frequent intra-tubular neutrophilic inflammation and cellular debris.

[2] = Plasma concentrations in infected animals by LC/MS; assay type: in vivo, male Wistar rats
Experimental: as §1
Plasma concentrations of BT2-peg2-vancomycin in infected animals were measured by liquid chromatography/mass spectrometry (LC/MS). […] The elutes (50 μl) were diluted with 450 μl 5% ACN in 0.1% formic acid and analyzed by Accela LC System (Thermo Scientific, San Jose, CA) coupled with a LTQ-Orbitrap XL mass spectrometer (Thermo Scientific, San Jose, CA). […] Elutes from the LC column were ionized by electrospray ionization and BT2-peg2-vancomycin and teicoplanin were detected by multiple reaction monitoring. […]
Plasma concentrations of vancomycin were measured by LC/MS. […]

[3] = test system: Thirty clinical isolates of MRSA; assay: microbe, parasite or virus in culture; assay type: cell-based, Staphylococcus aureus
Experimental: (§2) Thirty clinical isolates of MRSA were studied. […] The minimum bactericidal concentration (MBC) of vancomycin HCl and BT2-peg2-vancomycin diacetate were also determined according to CLSI guidelines (Clinical and Laboratory Standards Institute [1999]).

[4] = rat, in vivo, 63.85 mg/kg; cited from earlier work
Experimental: Chemical conjugation of vancomycin to a bone-targeting moiety would theoretically yield a compound targeting delivery of vancomycin to bone, a strategy that could be useful in the treatment of bone infection. Pradama Inc. has developed a bone-targeted vancomycin, BT2-peg2-vancomycin (Figure 1) (Pierce et al. [2011]). Previous studies show concentrations of BT2-peg2-vancomycin twelve hours after a single injection (63.85 mg/kg, equivalent to 50 mg/kg vancomycin) were 27.97 and 14.18 μg/ml for plasma and bone, respectively. Concentrations of BT2-peg2-vancomycin after seven doses given every 12 h ...

[5] = Hydroxyapatite (HA) binding assay; conditions: 50 mM Tris–HCl pH 7.4, 1% DMSO
Experimental: 10^-5 M solutions of tetracycline, vancomycin HCl or BT2-peg2-vancomycin diacetate in 50 mM Tris–HCl buffer, pH 7.4, 1% DMSO were prepared. […] An HA slurry of 0.5 g HA/100 ml 50 mM Tris–HCl buffer, 1% DMSO was prepared. For each analyte, two samples were tested in triplicate. For one sample, 1 ml of 10^-5 M analyte and 100 μl 50 mM Tris–HCl buffer, 1% DMSO was pipetted into a microcentrifuge tube. For the second sample, 1 ml of 10^-5 M analyte and 100 μl of the HA slurry was pipetted into a microcentrifuge tube. The samples were mixed gently by inversion for five minutes and then centrifuged at 12,000 g for three minutes to sediment the HA. The supernatant was transferred to another microcentrifuge tube. An electronic spectral scan (ultraviolet–visible) from 220–520 nm was obtained for each analyte using a Varian Cary 300 Bio Scan (Agilent Technologies, Santa Clara, CA). The blank was 50 mM Tris–HCl buffer, 1% DMSO. The wavelength of maximum absorbance (λmax) was determined, and the extinction coefficient (ϵ) calculated using the Beer-Lambert law. Absorbance of the samples incubated with HA was measured at λmax, and the molar concentration of the analyte determined using the Beer-Lambert law and the previously calculated extinction coefficient. The fraction adsorbed to HA was calculated for each sample. […]

[6] = test system: Thirty clinical isolates of MRSA; assay type: cell-based, Staphylococcus aureus; conditions: CLSI; 30 MRSA isolates
Experimental: as §2

MRSA IDRL-4293 = assay type: cell-based, Staphylococcus aureus; conditions: MRSA isolate used in the experimental osteomyelitis model
Experimental: as §2
The experimental model described was performed in accordance with the guidelines of the Institutional Animal Care and Use Committee of the Mayo Clinic. Experimental osteomyelitis was established in 90 male Wistar rats using a modification of Zak’s model of experimental osteomyelitis (O'Reilly & Mader [1999]). […] Animals were anesthetized with ketamine and xylazine and the proximal third of the medial left tibia surgically exposed. A 0.5 mm hole was drilled into the medullary cavity. Fifty microliters of morrhuate sodium (a sclerosing agent) was injected into the cavity, followed by 50 μl sterile saline containing 10^7 colony forming units (cfu) of MRSA IDRL-4293. The muscle was reattached with coated vicryl sutures (Ethicon, Somerville, NJ). The skin was closed with tissue glue (Tissuemend, Butler Animal Health Supply, Dublin, OH) and wound clips (Harvard Apparatus, Holliston, MA). The wound was sprayed with a wound adhesive (Aluspray, Butler Animal Health Supply, Dublin, OH), along with a chewing repellent (Chewguard, Summit Hill Laboratories, Tinton Falls, NJ).

[7] = test system: MRSA recovered from treated or untreated animals; assay type: cell-based, Staphylococcus aureus
Experimental: as §2
Ten MRSA colonies per animal recovered from quantitative bacterial cultures were tested for susceptibility to BT2-peg2-vancomycin diformate and/or vancomycin HCl.

[8] = male, Wistar, rat, in vivo, ip, 63.85 mg/kg
[9] = broth microdilution, CLSI, 30 MRSA isolates

SMILES: CN[C@H](CC(C)C)C(=O)N[C@H]1C(=O)N[C@@H](CC(N)=O)C(=O)N[C@H]2C(=O)N[C@H]3C(=O)N[C@H](C(=O)N[C@H](C(=O)NCCOCCOCC(=O)Nc4ccc(OC)c(C(N)=O)c4O)c4cc(O)cc(O)c4-c4cc3ccc4O)[C@H](O)c3ccc(c(Cl)c3)Oc3cc2cc(c3O[C@@H]2O[C@H](CO)[C@@H](O)[C@H](O)[C@H]2O[C@H]2C[C@](C)(N)[C@H](O)[C@H](C)O2)Oc2ccc(cc2Cl)[C@H]1O [BT2-peg2-vancomycin diformate]
kidney size ([1]; rat, in vivo): ~ 25.5 × 17.5 mm
kidney gross appearance (color, size) ([1]; rat, in vivo, ip): lighter in color and larger
kidney histology: tubulointerstitial nephritis grade ([1]; rat, in vivo, ip): 4

MIC at which 50% of the isolates were inhibited (MIC50) ([3]; Thirty clinical isolates of): 1 µg/mL
MIC at which 90% of the isolates were inhibited (MIC90) ([3]; Thirty clinical isolates of): 2 µg/mL
SMILES: CN[C@H](CC(C)C)C(=O)N[C@H]1C(=O)N[C@@H](CC(N)=O)C(=O)N[C@H]2C(=O)N[C@H]3C(=O)N[C@H](C(=O)N[C@H](C(=O)NCCOCCOCC(=O)Nc4ccc(OC)c(C(N)=O)c4O)c4cc(O)cc(O)c4-c4cc3ccc4O)[C@H](O)c3ccc(c(Cl)c3)Oc3cc2cc(c3O[C@@H]2O[C@H](CO)[C@@H](O)[C@H](O)[C@H]2O[C@H]2C[C@](C)(N)[C@H](O)[C@H](C)O2)Oc2ccc(cc2Cl)[C@H]1O [BT2-peg2-vancomycin]
level at 12 h [2, 8]: 130000 ng/mL
level at 48 h [2, 8]: 880 ng/mL
bone concentration [4]: 14.18 µg/mL
plasma concentration [4]: 27970 ng/mL

MIC50 ([3]; Staphylococcus aureus, broth microdilution, CLSI, 30 MRSA isolates, read-out: MIC at which 50% of the isolates were inhibited (MIC50)): > 128 µg/mL
SMILES: Cc1onc(-c2ccccc2)c1C(=O)N[C@@H]1C(=O)N2[C@@H]1SC(C)(C)[C@@H]2C(=O)O [oxacillin]

SMILES: CN(C)[C@@H]1C(O)=C(C(N)=O)C(=O)[C@@]2(O)C(O)=C3C(=O)c4c(O)cccc4[C@@](C)(O)[C@H]3C[C@@H]12 [tetracycline]
fraction bound to HA ([5]; at 10^-5 M, reference analyte): approximately 50%

SMILES: CN[C@H](CC(C)C)C(=O)N[C@H]1C(=O)N[C@@H](CC(N)=O)C(=O)N[C@H]2C(=O)N[C@H]3C(=O)N[C@H](C(=O)N[C@H](C(=O)O)c4cc(O)cc(O)c4-c4cc3ccc4O)[C@H](O)c3ccc(c(Cl)c3)Oc3cc2cc(c3O[C@@H]2O[C@H](CO)[C@@H](O)[C@H](O)[C@H]2O[C@H]2C[C@](C)(N)[C@H](O)[C@H](C)O2)Oc2ccc(cc2Cl)[C@H]1O [vancomycin HCl]
kidney gross appearance (color, size) ([1]; every 12 hours for 21 days ip): deep maroon color and size consistent with body weight
kidney histology: tubulointerstitial nephritis grade ([1]; every 12 hours for 21 days ip, lesions graded one to four, four most severe): did not exhibit microscopic abnormalities
Kidney weight, median (range) ([1]; twice daily for 21 days ip, vancomycin HCl 50 mg/kg, BTV 63.85 mg/kg, no treatment 1.4): 1.4 (1.1-1.7) grams
BUN, median (range) ([1]; twice daily for 21 days ip, vancomycin HCl 50 mg/kg, BTV 63.85 mg/kg, normal 9–30): 18.5 (15–21) mg/dl
Creatinine, median (range) ([1]; twice daily for 21 days ip, vancomycin HCl 50 mg/kg, BTV 63.85 mg/kg, normal range 0.4 to 0.7): 0.5 (0.4-0.6) mg/dl
Albumin, median (range) ([1]; twice daily for 21 days ip, vancomycin HCl 50 mg/kg, BTV 63.85 mg/kg, normal range 3.2 to 4.5): 3.4 (3.1-3.6) g/dl
MBC at which 50% of isolates were killed [6]: 2 µg/mL
MBC range [6]: 0.5 to 64 µg/mL
MIC range [3, 9]: 0.5 to 2 µg/mL
MBC (MRSA IDRL-4293): 2 µg/mL
MIC (MRSA IDRL-4293): 2 µg/mL

SMILES: CN[C@H](CC(C)C)C(=O)N[C@H]1C(=O)N[C@@H](CC(N)=O)C(=O)N[C@H]2C(=O)N[C@H]3C(=O)N[C@H](C(=O)N[C@H](C(=O)O)c4cc(O)cc(O)c4-c4cc3ccc4O)[C@H](O)c3ccc(c(Cl)c3)Oc3cc2cc(c3O[C@@H]2O[C@H](CO)[C@@H](O)[C@H](O)[C@H]2O[C@H]2C[C@](C)(N)[C@H](O)[C@H](C)O2)Oc2ccc(cc2Cl)[C@H]1O [vancomycin]
Plasma concentration, median ([2]; 12 h after last dose, twice daily for 21 days ip, vancomycin HCl 50 mg/kg (n=16), BTV 63.85 mg/kg (n=13), LC/MS): 710 ng/mL
increase in MIC of recovered isolates ([7]; all treatment groups): No increase in vancomycin or BT2-peg2-vancomycin MIC of more than one doubling dilution
MIC of recovered MRSA ([7]; isolates from animals treated with BT2-peg2-vancomycin diformate once weekly): 1 to 2 µg/mL
MIC of recovered MRSA ([7]; isolates from animals treated with BT2-peg2-vancomycin diformate twice daily): 1 to 4 µg/mL
MIC of recovered MRSA ([7]; isolates from animals treated with BT2-peg2-vancomycin diformate twice daily for 3.5 days then once every fourth day): 1 to 2 µg/mL
MIC of recovered MRSA ([7]; isolates recovered from the untreated group): 1 to 2 µg/mL
MIC of recovered MRSA ([7]; isolates recovered from vancomycin HCl-treated animals): 2 to 4 µg/mL
MBC at which 90% of isolates were killed (MBC90) [6]: 16 µg/mL
HA binding index ([5]; 10^-5 M analyte, HA slurry, mixed 5 min, UV–vis at λmax, triplicate, % bound/% tetracycline bound × 100): 0
MIC at which 50% of the isolates were inhibited (MIC50) [3, 9]: 1 µg/mL
MIC at which 90% of the isolates were inhibited (MIC90) [3, 9]: 2 µg/mL
